From the supplement of paper PMC10307832

What was measured:
Experiment in all cases: relative viability (nuclei count vs DMSO), 5 days (fraction); higher = more cells survive
201T = tested on: 201T
Procedure, shortened: (§1)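 Lung cancer cell lines, seeded in 1536-well plates, were treated the following day by pin tool with a single drug or with five library-drug doses (not always all listed) in √10 steps on top of a fixed anchor-drug dose. Cells were fixed and nuclei stained in one step after 5 days, and nuclei were counted. Relative viability is the nuclei count for treated wells divided by that for vehicle wells, reported as medians of duplicate plates.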

A-427 = tested on: A-427
Procedure, shortened: as §1

BEN = tested on: BEN
Procedure, shortened: as §1

COR-L 105 = tested on: COR-L 105
Procedure, shortened: as §1

COR-L23 = tested on: COR-L23
Procedure, shortened: as §1

EKVX = tested on: EKVX
Procedure, shortened: as §1

EMC-BAC-2 = tested on: EMC-BAC-2
Procedure, shortened: as §1

HCC-15 = tested on: HCC-15
Procedure, shortened: as §1

HCC-366 = tested on: HCC-366
Procedure, shortened: as §1

HCC-78 = tested on: HCC-78
Procedure, shortened: as §1

HOP-62 = tested on: HOP-62
Procedure, shortened: as §1

LK-2 = tested on: LK-2
Procedure, shortened: as §1

NCI-H1563 = tested on: NCI-H1563
Procedure, shortened: as §1

NCI-H1734 = tested on: NCI-H1734
Procedure, shortened: as §1

NCI-H1915 = tested on: NCI-H1915
Procedure, shortened: as §1

NCI-H1993 = tested on: NCI-H1993
Procedure, shortened: as §1

NCI-H2405 = tested on: NCI-H2405
Procedure, shortened: as §1

NCI-H460 = tested on: NCI-H460
Procedure, shortened: as §1

NCI-H647 = tested on: NCI-H647
Procedure, shortened: as §1

NCI-H661 = tested on: NCI-H661
Procedure, shortened: as §1

PC-14 = tested on: PC-14
Procedure, shortened: as §1

SK-MES-1 = tested on: SK-MES-1
Procedure, shortened: as §1

## Cc1csc(=NC2CCCCC2)n1/N=C/c1ccc(O)c(O)c1O [MIM1] + CS(=O)(=O)CCNCc1ccc(-c2ccc3ncnc(Nc4ccc(OCc5cccc(F)c5)c(Cl)c4)c3c2)o1 [Lapatinib] (partner 2 µM)
201T; first compound 0.2 µM
  relative viability: 1.08
201T; first compound 0.6325 µM
  relative viability: 1.05
201T; first compound 2 µM
  relative viability: 1.01
201T; first compound 6.325 µM
  relative viability: 0.49
201T; first compound 20 µM
  relative viability: 0.617
A-427; first compound 0.2 µM
  relative viability: 1.05
A-427; first compound 0.6325 µM
  relative viability: 1.05
A-427; first compound 2 µM
  relative viability: 0.868
A-427; first compound 6.325 µM
  relative viability: 0.841
A-427; first compound 20 µM
  relative viability: 0.265
BEN; first compound 0.2 µM
  relative viability: 0.732
BEN; first compound 0.6325 µM
  relative viability: 0.674
BEN; first compound 2 µM
  relative viability: 0.843
BEN; first compound 6.325 µM
  relative viability: 0.622
BEN; first compound 20 µM
  relative viability: 0.193
COR-L 105; first compound 0.2 µM
  relative viability: 0.371
COR-L 105; first compound 0.6325 µM
  relative viability: 0.331
COR-L 105; first compound 2 µM
  relative viability: 0.373
COR-L 105; first compound 6.325 µM
  relative viability: 0.319
COR-L 105; first compound 20 µM
  relative viability: 0.294
COR-L23; first compound 0.2 µM
  relative viability: 0.931
COR-L23; first compound 0.6325 µM
  relative viability: 1.07
COR-L23; first compound 2 µM
  relative viability: 0.844
COR-L23; first compound 6.325 µM
  relative viability: 0.619
COR-L23; first compound 20 µM
  relative viability: 0.286
EKVX; first compound 0.2 µM
  relative viability: 0.186
EKVX; first compound 0.6325 µM
  relative viability: 0.221
EKVX; first compound 2 µM
  relative viability: 0.179
EKVX; first compound 6.325 µM
  relative viability: 0.177
EKVX; first compound 20 µM
  relative viability: 0.178
EMC-BAC-2; first compound 0.2 µM
  relative viability: 0.861
EMC-BAC-2; first compound 0.6325 µM
  relative viability: 0.713
EMC-BAC-2; first compound 2 µM
  relative viability: 0.869
EMC-BAC-2; first compound 6.325 µM
  relative viability: 0.828
EMC-BAC-2; first compound 20 µM
  relative viability: 0.212
HCC-15; first compound 0.2 µM
  relative viability: 0.844
HCC-15; first compound 0.6325 µM
  relative viability: 0.554
HCC-15; first compound 2 µM
  relative viability: 0.98
HCC-15; first compound 6.325 µM
  relative viability: 0.415
HCC-15; first compound 20 µM
  relative viability: 0.102
HCC-366; first compound 0.2 µM
  relative viability: 1.01
HCC-366; first compound 0.6325 µM
  relative viability: 0.905
HCC-366; first compound 2 µM
  relative viability: 0.741
HCC-366; first compound 6.325 µM
  relative viability: 0.548
HCC-366; first compound 20 µM
  relative viability: 0.0188
HCC-78; first compound 0.2 µM
  relative viability: 0.834
HCC-78; first compound 0.6325 µM
  relative viability: 0.964
HCC-78; first compound 2 µM
  relative viability: 0.637
HCC-78; first compound 6.325 µM
  relative viability: 0.492
HCC-78; first compound 20 µM
  relative viability: 0.336
HOP-62; first compound 0.2 µM
  relative viability: 0.929
HOP-62; first compound 0.6325 µM
  relative viability: 0.864
HOP-62; first compound 2 µM
  relative viability: 0.414
HOP-62; first compound 6.325 µM
  relative viability: 0.843
HOP-62; first compound 20 µM
  relative viability: 0.158
LK-2; first compound 0.2 µM
  relative viability: 0.911
LK-2; first compound 0.6325 µM
  relative viability: 0.881
LK-2; first compound 2 µM
  relative viability: 0.697
LK-2; first compound 6.325 µM
  relative viability: 0.835
LK-2; first compound 20 µM
  relative viability: 0.268
NCI-H1563; first compound 0.2 µM
  relative viability: 0.903
NCI-H1563; first compound 0.6325 µM
  relative viability: 1.04
NCI-H1563; first compound 2 µM
  relative viability: 0.853
NCI-H1563; first compound 6.325 µM
  relative viability: 0.825
NCI-H1563; first compound 20 µM
  relative viability: 0.462
NCI-H1734; first compound 0.2 µM
  relative viability: 1.18
NCI-H1734; first compound 0.6325 µM
  relative viability: 0.874
NCI-H1734; first compound 2 µM
  relative viability: 0.971
NCI-H1734; first compound 6.325 µM
  relative viability: 0.823
NCI-H1734; first compound 20 µM
  relative viability: 0.198
NCI-H1915; first compound 0.2 µM
  relative viability: 0.996
NCI-H1915; first compound 0.6325 µM
  relative viability: 0.659
NCI-H1915; first compound 2 µM
  relative viability: 0.82
NCI-H1915; first compound 6.325 µM
  relative viability: 0.536
NCI-H1915; first compound 20 µM
  relative viability: 0.357
NCI-H1993; first compound 0.2 µM
  relative viability: 0.875
NCI-H1993; first compound 0.6325 µM
  relative viability: 0.871
NCI-H1993; first compound 2 µM
  relative viability: 0.735
NCI-H1993; first compound 6.325 µM
  relative viability: 0.87
NCI-H1993; first compound 20 µM
  relative viability: 0.541
NCI-H2405; first compound 0.2 µM
  relative viability: 1.13
NCI-H2405; first compound 0.6325 µM
  relative viability: 1.09
NCI-H2405; first compound 2 µM
  relative viability: 1.12
NCI-H2405; first compound 6.325 µM
  relative viability: 0.854
NCI-H2405; first compound 20 µM
  relative viability: 0.606
NCI-H460; first compound 0.2 µM
  relative viability: 0.889
NCI-H460; first compound 0.6325 µM
  relative viability: 1.01
NCI-H460; first compound 2 µM
  relative viability: 0.351
NCI-H460; first compound 6.325 µM
  relative viability: 0.256
NCI-H460; first compound 20 µM
  relative viability: 0.0216
NCI-H647; first compound 0.2 µM
  relative viability: 1.03
NCI-H647; first compound 0.6325 µM
  relative viability: 1.04
NCI-H647; first compound 2 µM
  relative viability: 1.02
NCI-H647; first compound 6.325 µM
  relative viability: 0.633
NCI-H647; first compound 20 µM
  relative viability: 0.104
NCI-H661; first compound 0.2 µM
  relative viability: 0.582
NCI-H661; first compound 0.6325 µM
  relative viability: 0.625
NCI-H661; first compound 2 µM
  relative viability: 0.548
NCI-H661; first compound 6.325 µM
  relative viability: 0.498
NCI-H661; first compound 20 µM
  relative viability: 0.29
PC-14; first compound 0.2 µM
  relative viability: 0.305
PC-14; first compound 0.6325 µM
  relative viability: 0.332
PC-14; first compound 2 µM
  relative viability: 0.363
PC-14; first compound 6.325 µM
  relative viability: 0.349
PC-14; first compound 20 µM
  relative viability: 0.479
SK-MES-1; first compound 0.2 µM
  relative viability: 0.479
SK-MES-1; first compound 0.6325 µM
  relative viability: 0.441
SK-MES-1; first compound 2 µM
  relative viability: 0.504
SK-MES-1; first compound 6.325 µM
  relative viability: 0.416
SK-MES-1; first compound 20 µM
  relative viability: 0.617
